Results taken from patent US10683267B1, “Antidiabetic compounds” (King Abdulaziz University, priority 2019, dated 2020).
“Also recorded” adds a separate entry of the source. Read-outs that look alike come from different tables or passages of the source. Marks after values point to notes of the source that are not given here.

Legend:
diabetic mice [1] = assay: Oral glucose tolerance test (OGTT) after single dose in diabetic mice; assay type: in vivo; conditions: for R.P. to Vildagliptin (Single Dose): Table 6, relative potency, B.G. = blood glucose; for AUC Δ from diabetic control / AUC of blood glucose in OGTT (X, mean) / AUC % change from diabetic control: single oral dose 50 mg/kg; for AUC of blood glucose in OGTT (X, mean): glucose load 2 g/kg 2 h later, AUC 0-120 min
Experimental: (§1) The Biochemical and Research Ethical Committee of King Abulaziz University (Jeddah, Saudi Arabia), in accordance with the NIH guidelines, approved all procedures, and the animals received human care during the experimental period. Experiments were carried out using adult male Swiss albino mice (SWR), of 8-9 weeks age and 30-35 g weight. Animals were purchased from the animal house of the King Fahed Medical Research center (KFMRC), Jeddah, Saudi Arabia. Mice were kept at a constant temperature of 24-25° C. and were subjected to a controlled 12 h light-dark cycle; they had free access to water and pelleted diet ad libitum.
(§2) Nicotinamide (210 mg/kg b.w.), dissolved in saline, was injected intraperitoneally 15 min before the intraperitoneal injection of Streptozotocin (STZ) (Sigma, 180 mg/kg b.w.), which was freshly prepared in citrate buffer (pH 4.5). Control animals received both vehicles. During the experimental period, animals' food intake and body weight gain were monitored once a week.
Oral glucose tolerance tests were performed in 14 h overnight fasted diabetic mice that were pretreated with a single oral dose of the tested compounds. […] The drugs were suspended in carboxymethyl cellulose (CMC)-Na (1% in distilled water) and the dosing volume was adjusted at 10 mL/kg body weight of the mouse. Then an oral glucose load was administered (2 g/kg) 2 h after drug treatment. Blood glucose levels were determined using the Accu-check Go® (Roche Diagnostics, Michigan, USA). Samples were collected just before drug administration (fasting blood glucose), then at 2 h after drug treatment (immediately before glucose loading). Then blood sample collection was continued at 20, 40, 60 and 120 min intervals after glucose loading.
Animals were distributed between three categories of groups. Each group is composed of six animals (n=6) […] as follows:
Category 1: One group of animals were 14 h overnight-fasted normoglycemic mice and vehicle-treated (1% CMC-Na) at a dose of 10 ml/kg.
Category 2: Another group of animals was overnight fasted diabetic mice received the vehicle (1% CMC-Na) at a dosing volume of 10 ml/kg and served as a negative control.
Category 4: Animals of these groups were overnight fasted diabetic mice received the tested compounds at a dose of 50 mg/kg in 1% CMC (volume of 10 ml/kg).

diabetic mice [2] = assay: Oral glucose tolerance test (OGTT) after multiple doses (6 days) in diabetic mice; assay type: in vivo; conditions: for AUC % change from diabetic control / AUC Δ from diabetic control / Relative potency to vildagliptin / AUC of blood glucose in OGTT (X, mean): 50 mg/kg oral for 6 days; for Relative potency to vildagliptin: OGTT AUC; for AUC of blood glucose in OGTT (X, mean): glucose load 2 g/kg 2 h after 6th dose, AUC 0-120 min; for R.P. to Vildagliptin (6 Days): Table 6, relative potency, B.G. = blood glucose
Experimental: as §1, §2
(§3) On the same groups that received the single dose treatment, the tested compounds were given daily by oral gavage for six consecutive days. On day 6, the overnight fasted diabetic mice were pretreated with the 6th oral dose of the tested compounds. Two hours later, an oral glucose was loaded (2 g/kg/10 ml b.w.). Blood glucose levels were determined using the Accu-check Go®. Samples were collected just before drug administration (Fasting Blood glucose), then 2 h after drug treatment and before glucose administration. Samples collection was continued at 20, 40, 60 and 120 min intervals after glucose loading.

diabetic mice [3] = assay: Fasting blood glucose of diabetic mice treated daily for 6 consecutive days; assay type: in vivo; conditions: 50 mg/kg oral daily
Experimental: as §1, §2, §3
The oral glucose tolerance test (OGTT) was performed over six days on diabetic mice. The glucose level was monitored daily (Table 3). The results were analyzed for activities after a single dose (Table 4) and after the 6th dose of the drug (Table 5).

DPP-IV enzyme = target: T1, DPP-IV enzyme (Homo sapiens, UniProt P27487); assay: In vitro DPP-IV inhibition assay (Biovision kit, fluorescence); assay type: biochemical; conditions: for DPP-4 enzyme inhibition activity, in words: SAR discussion
T1 construct: purchased Biovision (Milpitas, Calif., USA)
Experimental: DPP-IV inhibition assay was conducted using a kit purchased from Biovision (Milpitas, Calif., USA). Briefly, DPP-IV enzyme was diluted with Tris buffer and pipetted 50 μl into glass mini-cells. […] Finally a volume of 25 μl of DPP-IV substrate was added into each tube. The fluorescence generated from hydrolysis of the substrate was read at Ex/Em=360/460 nm using Modulus® single tube multimode reader (Promega, USA). Baseline fluorescence was recorded before incubation (R1) and 20 min after incubation (R2).
The standard DPP-IV inhibitor drug sitagliptin employed as positive control. […] Sigmoidal concentration-response curves for DPP-IV % inhibition versus log concentration were plotted using Graphpad prism software, version 5.00 (GraphPad Software, Inc. La Jolla, Calif., USA).

[4] = Table 2, head prints no unit, nM per Table 6, read-out: IC50
[5] = read-out: enzymatic inhibition value / inhibitory activity (IC50)

T1 sequence (P27487 whole entry, species assumed): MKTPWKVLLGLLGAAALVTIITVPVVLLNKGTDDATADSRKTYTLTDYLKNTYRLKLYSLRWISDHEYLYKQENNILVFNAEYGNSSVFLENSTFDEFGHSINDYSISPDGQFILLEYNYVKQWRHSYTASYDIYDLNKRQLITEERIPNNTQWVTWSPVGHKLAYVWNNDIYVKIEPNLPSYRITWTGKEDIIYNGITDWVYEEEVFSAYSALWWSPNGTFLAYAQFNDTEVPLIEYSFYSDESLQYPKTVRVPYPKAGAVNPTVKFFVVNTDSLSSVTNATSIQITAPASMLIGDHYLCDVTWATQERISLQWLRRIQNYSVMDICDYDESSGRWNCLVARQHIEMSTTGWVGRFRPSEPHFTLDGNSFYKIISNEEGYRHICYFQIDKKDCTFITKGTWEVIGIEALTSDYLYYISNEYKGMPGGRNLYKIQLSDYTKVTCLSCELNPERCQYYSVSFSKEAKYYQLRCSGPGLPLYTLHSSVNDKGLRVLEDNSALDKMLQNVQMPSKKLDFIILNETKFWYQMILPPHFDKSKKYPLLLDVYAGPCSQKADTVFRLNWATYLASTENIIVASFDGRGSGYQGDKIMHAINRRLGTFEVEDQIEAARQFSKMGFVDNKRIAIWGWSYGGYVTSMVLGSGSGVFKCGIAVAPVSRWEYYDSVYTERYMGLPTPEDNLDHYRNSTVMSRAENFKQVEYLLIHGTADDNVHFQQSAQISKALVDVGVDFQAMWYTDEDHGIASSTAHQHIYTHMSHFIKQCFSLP

| SMILES | DPP-4 enzyme inhibition activity, in words (DPP-IV enzyme) | IC50 (DPP-IV enzyme; [4]) | IC50 (DPP-IV enzyme; Table 6, read-out: IC50) | % Inhibition @ 100 nM (DPP-IV enzyme; compound at 100 nM) | IC50 (DPP-IV enzyme; [5]) | R.P. to Vildagliptin (Single Dose) (diabetic mice [1]) | AUC Δ from diabetic control (diabetic mice [1]) | AUC of blood glucose in OGTT (X, mean) (diabetic mice [1]) | AUC % change from diabetic control (diabetic mice [2]) | AUC Δ from diabetic control (diabetic mice [2]) | Relative potency to vildagliptin (diabetic mice [2]) | AUC of blood glucose in OGTT (X, mean) (diabetic mice [2]) | R.P. to Vildagliptin (6 Days) (diabetic mice [2]) | Fasting blood glucose level, Day 1 (diabetic mice [3]) | Fasting blood glucose level, Day 2 (diabetic mice [3]) | Fasting blood glucose level, Day 3 (diabetic mice [3]) | Fasting blood glucose level, Day 4 (diabetic mice [3]) | Fasting blood glucose level, Day 5 (diabetic mice [3]) | Fasting blood glucose level, Day 6 (diabetic mice [3]) | AUC % change from diabetic control (diabetic mice [1]) | also measured |
| --- | --- | --- | --- | --- | --- | --- | --- | --- | --- | --- | --- | --- | --- | --- | --- | --- | --- | --- | --- | --- | --- |
| N#Cc1cccc(NC(=O)CNC23CC4CC(CC(C4)C2)C3)c1 [Compound 110] | high affinity towards the enzyme | 3.02 nM | 3.02 nM | 65.51% | 3 nM | 1.11 | 18801 mg·min/dL | 32264* mg · dL^−1 · min | −30.05% | 15825 mg·min/dL | 0.83 | 36830* mg · dL^−1 · min | 0.27 | 165.00 ± mg/dL | 107.20 ± mg/dL | 83.00 ± mg/dL | 105.60 ± mg/dL | 111.80 ± mg/dL | 121.40 mg/dL | – | – |
| O=C(CNC12CC3CC(CC(C3)C1)C2)Nc1cccc(O)c1 [Compound 111] | much better performance | 2.08 nM | 2.08 nM | 79.63% | – | 1.52 | 25735 mg·min/dL | 25330* mg · dL^−1 · min | −9.820% | 6161 mg·min/dL | 0.27 | 47494 mg·min/dL | 0.46 | 171.00 mg/dL | 122.40 ± mg/dL | 74.80 ± mg/dL | 153.00 ± mg/dL | 141.20 ± mg/dL | 180.20 mg/dL | −50.39% | – |
| O=C(CNC12CC3CC(CC(C3)C1)C2)Nc1ccc(Cl)cc1 [Compound 112] | high DPP-4 inhibition | 7.41 nM | 7.41 nM | 61.82% | – | 1.14 | 19295 mg·min/dL | 31770* mg · dL^−1 · min | −16.99% | 8947 mg·min/dL | 0.46 | 43708* mg · dL^−1 · min | 0.79 | 159.20 ± mg/dL | 114.40 ± mg/dL | 84.40 ± mg/dL | 115.40 ± mg/dL | 132.40 ± mg/dL | 122.00 ± mg/dL | −37.78% | – |
| N#Cc1ccc(NC(=O)CNC23CC4CC(CC(C4)C2)C3)cc1 [Compound 118] | high affinity towards the enzyme; also recorded: high DPP-4 inhibition | 6.25 nM | 6.25 nM | 81.14% | – | 1.33 | 22581 mg·min/dL | 28484* mg · dL^−1 · min | −54.25% | 28569 mg·min/dL | 1.50 | 24086* mg · dL^−1 · min | 0.64 | 151.00 ± mg/dL | 124.00 ± mg/dL | 117.80 ± mg/dL | 141.00 ± mg/dL | 140.50 ± mg/dL | 151.30 ± mg/dL | −44.22% | – |
| O=C(CNC12CC3CC(CC(C3)C1)C2)Nc1ccccn1 [Compound 119, 2-[(adamantan-1-yl)amino]-N-(pyridin-2-yl)acetamide] | best functionality in enzyme inhibition activity | 1.58 nM | 1.58 nM | – | 1.6 nM | 1.417 | 23997 mg·min/dL | 27068* mg · dL^−1 · min | −23.26% | 12250 mg·min/dL | 0.64 | 40405* mg · dL^−1 · min | 1.26 | 149.60 ± mg/dL | 103.40 ± mg/dL | 104.80 ± mg/dL | 148.60 ± mg/dL | 107.60 ± mg/dL | 118.60 ± mg/dL | −46.99% | DPP-4 enzyme inhibition activity, in words (DPP-IV enzyme; listed as GLP-119): high level of potency both in vitro and in vivo; inhibition at 0.1 µM (DPP-IV enzyme; compound at 100 nM): 58% |
